Tests used:
Test in all cases: relative viability (nuclei count vs DMSO), 5 days (fraction); higher = more cells survive
[1] = compound: C1COCCN1C2=NC(=NC3=C2OC4=C3C=CC=N4)C5=CC(=CC=C5)NC(=O)C6=CN=C(C=C6)N + N=C(N)NC(=N)NCCc1ccccc1 [Phenformin] (partner 250 µM)
How it was run: (§1)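 For relative viability, nuclei counts in treated wells were divided by those in vehicle wells. Lung cancer cell lines had been pin-tool dosed in 1536-well plates the day after seeding and cultured for 5 days, then fixed and stained in one step (final 0.05% Triton X-100, 1% formaldehyde, 1 ug/ml Hoechst) and imaged at 4×. Doses were one drug alone or a fixed anchor-drug dose plus five library-drug doses (not always all listed) in √10 steps, and values are duplicate-plate medians.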

SGI-1776 + Luminespib = compound: CN1CCC(CNc2ccc3ncc(-c4cccc(OC(F)(F)F)c4)n3n2)CC1 [SGI-1776] + CCNC(=O)c1noc(-c2cc(C(C)C)c(O)cc2O)c1-c1ccc(CN2CCOCC2)cc1 [Luminespib] (partner 0.01 µM)
How it was run: as §1

SGI-1776 + Crizotinib = compound: CN1CCC(CNc2ccc3ncc(-c4cccc(OC(F)(F)F)c4)n3n2)CC1 [SGI-1776] + C[C@@H](Oc1cc(-c2cnn(C3CCNCC3)c2)cnc1N)c1c(Cl)ccc(F)c1Cl [Crizotinib] (partner 1 µM)
How it was run: as §1

Entinostat + Lapatinib = compound: Nc1ccccc1NC(=O)c1ccc(CNC(=O)OCc2cccnc2)cc1 [Entinostat] + CS(=O)(=O)CCNCc1ccc(-c2ccc3ncnc(Nc4ccc(OCc5cccc(F)c5)c(Cl)c4)c3c2)o1 [Lapatinib] (partner 2 µM)
How it was run: as §1

Cell Line | relative viability ([1]; first compound 0.02 µM) | relative viability ([1]; first compound 0.06325 µM) | relative viability ([1]; first compound 0.2 µM) | relative viability ([1]; first compound 0.6325 µM) | relative viability ([1]; first compound 2 µM) | relative viability (SGI-1776 + Luminespib; first compound 0.08 µM) | relative viability (SGI-1776 + Luminespib; first compound 0.8 µM) | relative viability (SGI-1776 + Luminespib; first compound 2.53 µM) | relative viability (SGI-1776 + Luminespib; first compound 8 µM) | relative viability (SGI-1776 + Crizotinib; first compound 0.08 µM) | relative viability (SGI-1776 + Crizotinib; first compound 0.8 µM) | relative viability (SGI-1776 + Crizotinib; first compound 2.53 µM) | relative viability (SGI-1776 + Crizotinib; first compound 8 µM) | relative viability (Entinostat + Lapatinib; first compound 0.02 µM) | relative viability (Entinostat + Lapatinib; first compound 0.06325 µM) | relative viability (Entinostat + Lapatinib; first compound 0.2 µM) | relative viability (Entinostat + Lapatinib; first compound 0.6325 µM) | relative viability (Entinostat + Lapatinib; first compound 2 µM)
201T | 0.452 | 0.448 | 0.443 | 0.428 | 0.33 | 1.04 | 1.09 | 1.05 | 1.03 | 1.05 | 1.04 | 1.01 | 1.01 | 1.02 | 1.03 | 0.959 | 0.937 | 0.665
A549 |  | 0.159 | 0.142 | 0.206 | 0.063 |  |  |  |  | 0.789 | 0.843 | 0.553 | 0.138 | 1 | 0.956 | 0.92 | 0.755 | 0.481
A-427 | 0.397 | 0.359 | 0.275 | 0.245 | 0.292 | 0.915 | 0.856 | 0.755 | 0.869 | 0.849 | 0.92 | 0.974 | 0.601 | 1.16 | 1.08 | 1.07 | 0.983 | 0.83
ABC-1 | 0.225 | 0.242 | 0.241 | 0.235 | 0.207 | 0.308 | 0.577 | 0.52 | 0.51 | 0.989 | 1.17 | 0.707 | 0.317 | 1.43 | 1.38 | 1.56 | 1.38 | 1.21
BEN | 0.278 | 0.263 | 0.269 | 0.253 | 0.318 | 0.434 | 0.39 | 1.1 | 0.475 | 0.799 | 0.851 | 0.844 | 0.628 | 0.894 | 0.743 | 0.562 | 0.373 | 0.219
CAL-12T | 0.525 | 0.561 | 0.533 | 0.498 | 0.247 | 0.331 | 0.394 | 0.452 | 0.519 | 0.682 | 0.327 | 0.254 | 0.232 | 0.606 | 0.762 | 0.55 | 0.501 | 0.466
COR-L23 | 0.426 | 0.445 | 0.418 | 0.433 | 0.218 | 0.702 | 0.68 | 0.743 | 0.511 | 0.821 | 0.491 | 0.519 | 0.495 | 0.967 | 0.995 | 0.905 | 0.579 | 0.176
COR-L 105 | 0.402 | 0.517 | 0.404 | 0.41 | 0.274 | 0.741 | 0.713 | 0.691 | 0.834 | 1.03 | 0.717 | 0.464 | 0.287 | 0.362 | 0.357 | 0.358 | 0.328 | 0.34
Calu-6 |  |  |  |  |  |  |  |  |  | 0.806 | 0.624 | 0.402 | 0.289 | 1.09 | 0.967 | 0.963 | 0.698 | 0.498
ChaGo-K-1 | 0.464 | 0.583 | 0.533 | 0.456 | 0.459 | 0.586 | 0.51 | 0.706 | 0.556 | 1.16 | 1.12 | 1.13 | 0.362 |  |  |  |  | 
EBC-1 |  |  |  |  |  |  |  |  |  | 0.21 | 0.175 | 0.186 | 0.123 | 0.213 | 0.211 | 0.208 | 0.181 | 0.184
EKVX | 0.223 | 0.21 | 0.207 | 0.216 | 0.181 | 0.868 | 0.937 | 0.875 | 0.863 | 0.847 | 1.01 | 0.977 | 0.882 | 0.254 | 0.219 | 0.209 | 0.161 | 0.153
EMC-BAC-2 | 0.543 | 0.56 | 0.451 | 0.469 | 0.304 | 1.2 | 1.27 | 1.26 | 1.11 | 0.838 | 0.7 | 0.701 | 0.461 | 0.873 | 0.956 | 0.901 | 0.682 | 0.499
EPLC-272H | 0.306 | 0.305 | 0.26 | 0.241 | 0.282 | 0.402 | 0.536 | 0.501 | 0.2 | 0.832 | 0.891 | 0.909 | 0.772 | 0.951 | 0.831 | 1.27 | 0.365 | 0.334
H3255 | 0.362 | 0.357 | 0.368 | 0.326 | 0.338 | 0.988 | 1.1 | 0.894 | 0.665 | 1.03 | 1.01 | 0.896 | 0.62 | 0.21 | 0.309 | 0.161 | 0.145 | 0.156
HARA | 0.413 | 0.586 | 0.487 | 0.431 | 0.363 | 0.862 | 0.67 | 0.67 | 0.0476 | 1.17 | 1.17 | 1.01 | 0.775 | 0.792 | 0.872 | 0.786 | 0.671 | 0.374
HCC-15 | 0.546 | 0.528 | 0.462 | 0.388 | 0.25 | 0.353 | 0.34 | 0.325 | 0.186 | 0.819 | 0.816 | 0.761 | 0.764 | 0.866 | 0.779 | 0.726 | 0.345 | 0.288
HCC-44 | 0.182 | 0.191 | 0.137 | 0.157 | 0.171 | 1.06 | 0.953 | 1.01 | 0.693 | 0.818 | 0.828 | 0.867 | 0.764 | 1 | 0.88 | 0.7 | 0.258 | 0.311
HCC-78 | 0.716 | 0.654 | 0.761 | 0.681 | 0.642 |  |  |  |  | 0.352 | 0.311 | 0.346 | 0.318 | 0.829 | 0.702 | 0.33 | 0.169 | 0.169
HCC-366 | 0.63 | 0.709 | 0.644 | 0.644 | 0.573 |  |  |  |  | 0.549 | 0.557 | 0.393 | 0.098 | 1.02 | 1.04 | 0.66 | 0.218 | 0.0452

— the supplement of paper PMC10307832
